pIC50: −log10 of the molar value.

Assay [1] addresses T1, endothelial nitric oxide synthase (Homo sapiens, UniProt P29474).
T1 construct: Enzyme may be isolated from human umbilical vein endothelial cells (HUVECs); host or cells: HUVEC (CHAPS-solubilised particulate fraction)
The experiment in a line: Screen for endothelial nitric oxide synthase inhibiting activity (Screen C). The class given is biochemical.
Procedure: (C) Screen for endothelial nitric oxide synthase inhibiting activity
HUVECs were purchased from Clonetics Corp (San Diego, Calif., USA) and cultured to confluency. Cells can be maintained to passage 35-40 without significant loss of yield of nitric oxide synthase. When cells reach confluency, they are resuspended in Dulbecco's phosphate buffered saline, centrifuged at 800 rpm for 10 mins, the cell pellet homogenised in ice-cold 50 mM Tris-HCl, 1 mM EDTA, 10% glycerol, 1 mM phenylmethylsulphonylfluoride, 2 μM leupeptin at pH 4.2. Following centrifugation at 34,000 rpm for 60 mins, the pellet is solubilised in the homogenisation buffer which also contains 20 mM CHAPS. After a 30 min incubation on ice, the suspension is centrifuged at 34,000 rpm for 30 mins. The resulting supernatant is stored at -80° C. until use.
For the assay, 25 μl of the final supernatant is added to each of 12 test tubes containing 25 μl L-arginine solution (of concentration 12 μM ^1 H-L-arginine, 64 nM ^3 H-L-arginine) and either 25 μl of an assay buffer (50 mM HEPES, 1 mM EDTA, 1.5 mM CaCl2, pH 7.4) or 25 μl of test compound in the buffer at 22° C. […]
(§1) Labelled L-citrulline is separated from labelled L-arginine by chromatography over a Dowex AG-50W-X8 200-400 mesh column. […] The L-citrulline is then quantified by scintillation counting. […]

Assay [2] has as its target T2, macrophage nitric oxide synthase (Mus musculus, UniProt P29477).
T2 construct: Nitric oxide synthase is produced by cells in response to interferon-γ (IFNγ) and lipopolysaccharide (LPS); endogenous in cells; host or cells: J774A-1 murine macrophage cell line, induced with LPS and IFN-gamma (cell lysate)
The assay can be described thus: Screen for macrophage nitric oxide synthase inhibiting activity (Screen B). The assay is classed as biochemical, murine. The settings on record: ratio of IC50 in Screen B (macrophage isoform) to IC50 in Screen A (neuronal isoform). The source says:
The enzyme nitric oxide synthase has a number of isoforms and compounds of formula I, and pharmaceutically acceptable salts thereof, may be screened for nitric oxide synthase inhibiting activity by procedures based on those of Bredt and Snyder in Proc. Natl. Acad. Sci. (1990) 87, 682-685 and Forstermann et. al., Eur. J. Pharm. (1992) 225, 161-165 as follows. Nitric oxide synthase converts ^3 H-L-arginine to ^3 H-L-citrulline which can be separated by cation exchange chromatography and quantified by scintillation counting.
(B) Screen for macrophage nitric oxide synthase inhibiting activity
Enzyme is prepared, after induction, from the cultured murine macrophage cell line J774A-1 (obtained from laboratories of the Imperial Cancer Research Fund). J774A-1 cells are cultured in Dulbecco's Modified Eagles Medium (DMEM) supplemented with 10% foetal bovine serum, 4 mM L-glutamine and antibiotics (100 units/ml penicillin G, 100 μg/ml streptomycin & 0.25 μg/ml amphotericin B). Cells are routinely grown in […] flasks containing 35 ml medium kept at 37° C. and in a humidified atmosphere containing 5% CO2.
Nitric oxide synthase is produced by cells in response to interferon-γ (IFNγ) and lipopolysaccharide (LPS). […]
Labelled L-citrulline is separated from labelled L-arginine using Dowex AG-50W. […] After allowing the samples to dry the L-citrulline is quantified by scintillation counting. […]

For assay [3], the target named is T3, neuronal nitric oxide synthase (Rattus norvegicus, UniProt P29476).
T3 construct: Enzyme was isolated from rat hippocampus or cerebellum; from tissue; host or cells: cerebellum or hippocampus of male Sprague-Dawley rat (20,000 g supernatant)
T3 sequence (P29476 whole entry): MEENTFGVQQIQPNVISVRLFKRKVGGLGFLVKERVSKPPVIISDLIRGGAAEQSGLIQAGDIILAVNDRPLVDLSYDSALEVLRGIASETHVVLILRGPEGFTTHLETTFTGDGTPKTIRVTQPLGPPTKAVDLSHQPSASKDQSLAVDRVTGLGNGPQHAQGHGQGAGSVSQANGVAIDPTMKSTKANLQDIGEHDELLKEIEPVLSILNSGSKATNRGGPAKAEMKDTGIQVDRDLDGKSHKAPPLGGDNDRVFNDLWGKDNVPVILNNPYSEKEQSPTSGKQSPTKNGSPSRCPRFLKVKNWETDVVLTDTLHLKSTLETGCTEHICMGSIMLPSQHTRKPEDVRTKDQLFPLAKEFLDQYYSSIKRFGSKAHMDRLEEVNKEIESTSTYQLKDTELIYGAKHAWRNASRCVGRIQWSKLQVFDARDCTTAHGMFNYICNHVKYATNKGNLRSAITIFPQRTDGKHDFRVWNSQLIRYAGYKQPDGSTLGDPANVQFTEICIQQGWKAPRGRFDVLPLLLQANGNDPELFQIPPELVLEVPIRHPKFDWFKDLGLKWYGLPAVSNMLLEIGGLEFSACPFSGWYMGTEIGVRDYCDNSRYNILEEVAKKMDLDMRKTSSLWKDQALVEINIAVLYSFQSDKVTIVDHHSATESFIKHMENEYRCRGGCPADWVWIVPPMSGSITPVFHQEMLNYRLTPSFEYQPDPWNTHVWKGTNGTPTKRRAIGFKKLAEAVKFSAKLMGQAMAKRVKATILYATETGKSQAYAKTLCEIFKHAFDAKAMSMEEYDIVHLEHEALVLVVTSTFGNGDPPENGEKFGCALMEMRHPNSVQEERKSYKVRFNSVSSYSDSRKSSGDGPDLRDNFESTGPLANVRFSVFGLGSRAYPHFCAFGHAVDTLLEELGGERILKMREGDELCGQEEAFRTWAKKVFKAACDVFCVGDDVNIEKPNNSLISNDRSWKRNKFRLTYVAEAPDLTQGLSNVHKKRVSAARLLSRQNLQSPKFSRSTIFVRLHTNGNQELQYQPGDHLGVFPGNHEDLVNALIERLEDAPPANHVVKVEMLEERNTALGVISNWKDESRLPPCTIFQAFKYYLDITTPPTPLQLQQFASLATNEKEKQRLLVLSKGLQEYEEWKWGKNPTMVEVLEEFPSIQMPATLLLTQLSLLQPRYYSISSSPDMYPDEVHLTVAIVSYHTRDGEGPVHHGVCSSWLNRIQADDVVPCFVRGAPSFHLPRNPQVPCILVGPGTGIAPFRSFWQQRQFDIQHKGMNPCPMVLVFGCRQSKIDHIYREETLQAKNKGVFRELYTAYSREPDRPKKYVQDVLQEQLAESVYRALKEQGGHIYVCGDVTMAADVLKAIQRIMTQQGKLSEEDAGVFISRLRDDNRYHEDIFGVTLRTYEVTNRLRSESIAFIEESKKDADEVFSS
The experiment in a line: Screen for neuronal nitric oxide synthase inhibiting activity (Screen A). The assay is classed as biochemical.
Procedure: (A) Screen for neuronal nitric oxide synthase inhibiting activity
Enzyme was isolated from rat hippocampus or cerebellum. The cerebellum or hippocampus of a male Sprague-Dawley rat (250-275 g) is removed following CO2 anaesthesia of the animal and decapitation. Cerebellar or hippocampal supernatant is prepared by homogenisation in 50 mM Tris-HCl with 1 mM EDTA buffer (pH 7.2 at 25° C.) and centifugation for 15 minutes at 20,000 g. Residual L-arginine is removed from the supernatant by chromatography through Dowex AG-50W-X8 sodium form and hydrogen form columns successively, and further centrifugation at 1000 g for 30 seconds.
For the assay, 25 μl of the final supernatant is added to each of 12 test tubes containing 25 μl L-arginine solution (of concentration 18 μM ^1 H-L-arginine, 96 nM ^3 H-L-arginine) and either 25 μl of an assay buffer (50 mM HEPES, 1 mM EDTA, 1.5 mM CaCl2, pH 7.4) or 25 μl of test compound in the buffer at 22° C. […]
as §1

T1 sequence (P29474 2-1203): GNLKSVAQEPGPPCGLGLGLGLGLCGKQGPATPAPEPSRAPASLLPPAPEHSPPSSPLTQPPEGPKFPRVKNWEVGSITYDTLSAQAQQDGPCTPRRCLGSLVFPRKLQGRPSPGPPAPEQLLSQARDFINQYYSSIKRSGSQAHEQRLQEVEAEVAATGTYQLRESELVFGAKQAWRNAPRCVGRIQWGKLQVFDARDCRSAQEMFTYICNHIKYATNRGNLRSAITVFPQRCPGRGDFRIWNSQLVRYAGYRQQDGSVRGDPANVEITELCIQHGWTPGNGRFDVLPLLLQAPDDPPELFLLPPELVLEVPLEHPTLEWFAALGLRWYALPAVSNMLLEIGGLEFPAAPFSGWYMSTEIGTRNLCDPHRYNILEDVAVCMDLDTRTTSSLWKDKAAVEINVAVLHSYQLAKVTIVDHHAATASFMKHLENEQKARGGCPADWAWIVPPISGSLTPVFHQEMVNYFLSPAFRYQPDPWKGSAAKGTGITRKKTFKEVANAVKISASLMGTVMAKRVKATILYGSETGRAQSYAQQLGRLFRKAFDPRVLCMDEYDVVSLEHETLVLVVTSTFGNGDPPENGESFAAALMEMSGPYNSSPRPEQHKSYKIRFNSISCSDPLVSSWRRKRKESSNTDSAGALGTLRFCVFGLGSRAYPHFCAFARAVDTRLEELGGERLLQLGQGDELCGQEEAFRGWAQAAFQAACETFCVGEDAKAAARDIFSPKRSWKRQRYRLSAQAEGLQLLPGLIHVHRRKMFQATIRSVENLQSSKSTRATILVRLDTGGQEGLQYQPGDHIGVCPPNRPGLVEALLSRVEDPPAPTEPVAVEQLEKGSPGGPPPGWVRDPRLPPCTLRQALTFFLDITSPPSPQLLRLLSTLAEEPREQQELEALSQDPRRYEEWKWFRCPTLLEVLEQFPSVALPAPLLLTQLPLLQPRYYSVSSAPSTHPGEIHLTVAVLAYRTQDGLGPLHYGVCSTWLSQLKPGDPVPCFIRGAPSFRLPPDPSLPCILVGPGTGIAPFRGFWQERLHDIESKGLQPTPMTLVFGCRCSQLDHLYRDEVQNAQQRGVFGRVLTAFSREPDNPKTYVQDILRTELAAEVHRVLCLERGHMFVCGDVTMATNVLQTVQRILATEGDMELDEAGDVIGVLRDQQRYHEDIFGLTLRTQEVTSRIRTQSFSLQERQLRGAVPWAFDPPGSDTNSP

Consider `CCSC(=N)Nc1ccc(CCN(C)Cc2ccccc2)cc1` [Example 1, N-(4-(2-((Phenylmethyl)(methyl)amino)ethyl)phenyl)carbamimidothioic acid ethyl ester], for which the “IC50 values more than 10 times that obtained in Screen A” value in assay [1] (ratio of IC50 in Screen C (endothelial isoform) to IC50 in Screen A (neuronal isoform)) and in assay [2] was “more than 10 times” each time. Besides, the pIC50 – broadly, the IC50 on a negative log10 scale, so that one unit is a factor of ten – in assay [3] (Screen A, neuronal isoform, rat hippocampus or cerebellum supernatant) is above 5.00.
Regarding `N=C(NCCC[C@H](N)C(=O)O)N[N+](=O)[O-]` [N-nitro-L-arginine, reference compound], the inhibition (usually the change of the read-out against control, counted positive when it falls) at 1 µM in assay [1] (reference standard at a concentration of 1 μM, HUVEC enzyme) is 70 to 90%; in assay [3] (reference standard at a concentration of 1 μM), 60%.

Values taken from US5721247A, “Isothiourea derivatives useful in therapy” (priority 1994, dated 1998).
